Data set [1] relates to Felis catus. The data set can be described thus: Potency ratio for in vivo inhibition of beta-1 adrenoceptor in vagotomized cat assessed as inhibition of isoproterenol-induced tachycardia to in vivo inhibition of beta-2 adrenoceptor in chloralose-anesthetized vagotomized cat assessed as inhibition of isoproterenol-induced fall in diastolic pressure. The class given is functional.

The subject of data set [2] is Felis catus. The data set can be described thus: In vivo inhibition of beta-2 adrenoceptor in chloralose-anesthetized vagotomized cat assessed as inhibition of isoproterenol-induced fall in diastolic pressure. The class given is functional, organism-based. The note with it: read-out: pA2 (converted).
Data set [3] in a line: 1-Octanol-phosphate buffer apparent partition coefficient, log P of the compound at pH 7.4. The class given is physicochemical.
Data set [4] concerns Felis catus. The data set can be described thus: In vivo inhibition of beta-1 adrenoceptor in vagotomized cat assessed as inhibition of isoproterenol-induced tachycardia. The note with it: read-out: pA2 (converted). The data set is classed as functional, organism-based.
Data set [5] relates to Felis catus. The data set can be described thus: Potency ratio for in vivo inhibition of beta-2 adrenoceptor in chloralose-anesthetized vagotomized cat assessed as inhibition of isoproterenol-induced fall in diastolic pressure to in vivo inhibition of beta-1 adrenoceptor in vagotomized cat assessed as inhibition of isoproterenol-induced tachycardia. The data set is classed as functional.

The species entered for a further data set is Cavia porcellus. As to the kind of experiment: Selectivity for guinea pig right atria beta-1 adrenoceptor over guinea pig trachea beta-2 adrenoceptor.

The structures appear in SMILES notation.

In the case of `Cc1ccc(OCC(O)CNC(C)C)cc1` (racemic), in the data set on Felis catus [1], the Ratio amounted to 1. For the same molecule, the Kb with Felis catus [2] and in the data set on Felis catus [4] was 234 nM each time. Also, in data set [3], the logD was 0.423.
On to `CC(C)N[C@@H](C)[C@@H](O)COc1ccccc1.O=C(O)C(=O)O` (racemic), for which the Ratio in the data set with Felis catus [1] came out at 0.3; with Felis catus [5], 3. Further, the figures for the Kb with Felis catus [2] and in the data set with Felis catus [4] were 631 nM and 2190 nM, respectively. In addition, the pH-dependent lipophilicity (logD) in data set [3] is -0.244.
For the molecule `CC(C)N[C@H](c1ccccc1)[C@@H](O)COc1ccccc1` (racemic), the Kb in the data set with Felis catus [2] and in the data set with Felis catus [4] was > 10000 nM throughout. For the same molecule, the log distribution coefficient (logD) in data set [3] was 2.1.
For `COc1ccc(CCNCC(O)COc2ccccc2)cc1OC.Cl` (racemic), the Ratio with Felis catus [1] is given as 10. The Kb in the data set on Felis catus [2] was 692 nM; in the data set with Felis catus [4] it was 63.1 nM. Moreover, the logD in data set [3] was 1.7.
`Cc1ccc([C@@H](O)[C@H](C)NC(C)C)cc1` (racemic): the Ratio with Felis catus [1] is <0.3. Besides, the Kb in the data set on Felis catus [2] was 3390 nM; in the data set on Felis catus [4] it was > 10000 nM. For the same molecule, the logD in data set [3] is 0.149.
With `COc1ccc(CCN[C@H](C)[C@@H](O)COc2ccccc2)cc1OC.Cl` (racemic), the Ratio with Felis catus [1] is >40. Moreover, the Kb with Felis catus [2] is > 10000 nM; with Felis catus [4] it was 219 nM. Moreover, the logD in data set [3] was 1.66.
In the case of `CC(C)NCC(O)COc1ccccc1` (racemic), in the data set with Felis catus [1], the Ratio stood at 5. Also, the Kb in the data set on Felis catus [2] is 204 nM; with Felis catus [4] it was 44.7 nM. Moreover, the logD in data set [3] is -0.137. Also, the Selectivity ratio in the data set listed under Cavia porcellus was determined as 25.
In the case of `CC(=O)Nc1ccc(OCC(O)CNC(C)C)cc1` (racemic) [PRACTOLOL], the Ratio in the data set with Felis catus [1] was determined as 22. Besides, the figures for the Kb in the data set with Felis catus [2] and in the data set with Felis catus [4] were 5010 nM and 229 nM, respectively. In data set [3], the logD is -1.05.
For the molecule `CC(C)N[C@H](C)[C@@H](O)COc1ccccc1.Cl` (racemic), the Ratio is on record as 0.3 in the data set on Felis catus [1] and 3 in the data set with Felis catus [5]. Also, the Kb in the data set with Felis catus [2] is 151 nM; with Felis catus [4], 501 nM. Besides, the logD in data set [3] is -0.244.

Source of the values: ChEMBL document CHEMBL3244234, “Alteration of relative affinities toward myocardial and vascular beta adrenoceptors induced by side-chain substitution of aryloxypropanolamines” (J Med Chem, 1978).
